Data on 7 compounds can be found in PubChem BioAssay (NCI).

Several values for one entry are separate records, joined by “and”; a condition that tells them apart may be missing. Identical values can stand only once.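 Protocol summary: plate cells (96-well), add compound at 5 concentrations, incubate 48 h, interpolate endpoints linearly. GI50 = concentration required for 50% inhibition of growth. TGI denotes the concentration required for complete inhibition of growth.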

Some test systems named below: CAKI-1 renal; HOP-92 NSCLC; HT29 colon; IGROV1 ovarian; M14 melanoma; MOLT-4 leukemia; NCI-H226 lung; SK-MEL-2 melanoma; SK-MEL-28 melanoma; UO-31 renal.
What all share (experiment): NCI-60 cell line screen, 48 h

On to `CCN(CC)c1ccc(N=Nc2ccc(-c3nc4cccnc4o3)cc2)cc1`, for which the TGI in the test on CAKI-1 renal, with HOP-92 NSCLC, in the test with HT29 colon, in the test on IGROV1 ovarian, in the test on M14 melanoma and with MOLT-4 leukemia was over 100 µM throughout. Moreover, the TGI in the test on NCI-H226 lung, in the test on SK-MEL-2 melanoma, with SK-MEL-28 melanoma and with UO-31 renal was over 100 µM in each case.
As for `COc1cc(C2c3cc4c(cc3[C@@H](Nc3ccc(C(=O)O)cc3)C3COC(=O)[C@H]23)OCO4)cc(OC)c1O` (some centres undefined), the TGI in the test with CAKI-1 renal was 47.1 µM and > 17.5 µM; in the test with HOP-92 NSCLC it was 18.5 µM and > 17.5 µM; with HT29 colon, 64.8 µM and > 17.5 µM; with IGROV1 ovarian, 68.6 µM and > 17.5 µM; with M14 melanoma, 59.9 µM and > 17.5 µM; with MOLT-4 leukemia it was 5.47 µM and 2.66 µM. For the same compound, the TGI in the test with NCI-H226 lung was 15.8 µM and 13.9 µM; with SK-MEL-2 melanoma it was 75.3 µM and > 17.5 µM; in the test with SK-MEL-28 melanoma it was over 100 µM; in the test with UO-31 renal, over 100 µM.
As to `Cc1cc2nc3c(=O)n(C)c(=O)nc-3n(-c3ccc(Cl)cc3)c2cc1C`, the TGI in the test with CAKI-1 renal came to 48.8 µM; in the test on HOP-92 NSCLC, 34 µM; in the test with HT29 colon, 16.1 µM; with IGROV1 ovarian, 38.8 µM; with M14 melanoma it was 13.9 µM; in the test with MOLT-4 leukemia, 32.8 µM. Also, the TGI in the test with NCI-H226 lung amounted to 37.6 µM; in the test on SK-MEL-2 melanoma it was 34.9 µM; in the test on SK-MEL-28 melanoma, 33.4 µM; with UO-31 renal, 52.6 µM.
With `CCOC(=O)[C@@H](C)C[C@H](Cc1ccccc1)NC(=O)c1csc([C@@H](C[C@H](C(C)C)N(C)C(=O)[C@@H](NC(=O)[C@H]2C[C@H](O[Si](C)(C)C(C)(C)C)CCN2C)C(C)C)OC(C)=O)n1`, the GI50 is 0.351 µM with CAKI-1 renal; 0.181 µM in the test with HOP-92 NSCLC; 0.267 µM with HT29 colon; 0.272 µM with IGROV1 ovarian; 0.198 µM in the test with M14 melanoma; 0.354 µM in the test on MOLT-4 leukemia. The GI50 in the test with NCI-H226 lung is 0.493 µM; with SK-MEL-2 melanoma it was 0.263 µM; in the test with SK-MEL-28 melanoma, 0.491 µM; in the test on UO-31 renal it was 0.44 µM. Moreover, the TGI was over 8.33 µM with CAKI-1 renal; 6.06 µM in the test with HOP-92 NSCLC; 1.96 µM in the test with HT29 colon; over 8.33 µM in the test with IGROV1 ovarian; 1.03 µM in the test with M14 melanoma; over 8.33 µM in the test on MOLT-4 leukemia. Moreover, the TGI in the test on NCI-H226 lung is over 4.18 µM; in the test on SK-MEL-2 melanoma, over 7.21 µM; with SK-MEL-28 melanoma, over 8.33 µM; in the test on UO-31 renal it was over 8.33 µM.
Regarding `O=[N+]([O-])c1ccc2[nH]cc(-c3c4ccsc4cc4[nH]c5ccc([N+](=O)[O-])cc5c34)c2c1`, the GI50 was 0.758 µM in the test with CAKI-1 renal; 0.882 µM with HOP-92 NSCLC; 1.21 µM in the test on HT29 colon; 1.65 µM with IGROV1 ovarian; 0.527 µM with M14 melanoma; 1.27 µM in the test on MOLT-4 leukemia. Besides, the GI50 in the test with NCI-H226 lung was 0.967 µM; in the test on SK-MEL-2 melanoma, 0.861 µM; in the test on SK-MEL-28 melanoma, 1.38 µM; with UO-31 renal, 0.827 µM. Further, the TGI in the test on CAKI-1 renal was found to be 9.94 µM; in the test on HOP-92 NSCLC it was 6.94 µM; in the test with HT29 colon it was 12.5 µM; with IGROV1 ovarian, 8.52 µM; in the test with M14 melanoma, 1.39 µM; with MOLT-4 leukemia, 5.5 µM. Besides, the TGI with NCI-H226 lung is 3.95 µM; in the test with SK-MEL-2 melanoma it was 4.18 µM; with SK-MEL-28 melanoma, 6.44 µM; in the test on UO-31 renal it was 5.14 µM.
As for `C=CC(=O)N1CCCC(n2nc(-c3ccc(Oc4ccccc4)cc3)c3c(N)ncnc32)C1` (centres undefined), the GI50 in the test on CAKI-1 renal was 0.107 µM; in the test with HOP-92 NSCLC, 1.57 µM; in the test on HT29 colon it was 5.93 µM; in the test on IGROV1 ovarian, 0.643 µM; in the test on M14 melanoma, 7.59 µM; in the test with MOLT-4 leukemia, 4.28 µM. Also, the GI50 was 3.97 µM in the test with NCI-H226 lung, 16 µM in the test on SK-MEL-2 melanoma, 12.3 µM in the test with SK-MEL-28 melanoma and 1.4 µM in the test with UO-31 renal. The TGI with CAKI-1 renal is 10.6 µM; in the test with HOP-92 NSCLC it was 10.5 µM; in the test with HT29 colon it was 21 µM; with IGROV1 ovarian, 14.6 µM; in the test with M14 melanoma, 21.4 µM; in the test with MOLT-4 leukemia, 25.8 µM. Also, the TGI in the test on NCI-H226 lung turned out to be 19.3 µM; with SK-MEL-2 melanoma, 31.6 µM; in the test on SK-MEL-28 melanoma it was 25 µM; with UO-31 renal, 13.5 µM.
Take `O=C1c2cc(Br)ccc2-c2c1c1ccc([N+](=O)[O-])cc1c(=O)n2CCCCl`: the GI50 is under 0.0285 µM in the test with CAKI-1 renal; 0.453 µM with HOP-92 NSCLC; 0.309 µM in the test on HT29 colon; 0.13 µM in the test with IGROV1 ovarian; 0.534 µM in the test on M14 melanoma; under 0.01 µM in the test with MOLT-4 leukemia. The GI50 is 0.1 µM with NCI-H226 lung, 10.8 µM in the test with SK-MEL-2 melanoma, 1.61 µM in the test with SK-MEL-28 melanoma and 0.0577 µM in the test with UO-31 renal. Moreover, the TGI with CAKI-1 renal was determined as 2.73 µM; in the test with HOP-92 NSCLC, 23.9 µM; in the test with HT29 colon, 12.1 µM; with IGROV1 ovarian, 4.58 µM; with M14 melanoma it was 1.78 µM; in the test with NCI-H226 lung, 3.59 µM. Further, the TGI was 37.3 µM with SK-MEL-2 melanoma, over 100 µM in the test on SK-MEL-28 melanoma and 3.43 µM in the test with UO-31 renal.
